Measured values reported in US20060069132A1, “Azolecarboxamide herbicides” (priority 2004, published 2006).

Assays:
[1] = test system: velvetleaf; test: Test B pre-/postemergence herbicide test; assay type: in vivo, Abutilon theophrasti; details: for Velvetleaf plant response rating: postemergence, scale 0 (no effect) to 100 (complete control)
Procedure, shortened: (§1)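 Flooded paddy rice and barnyardgrass were treated at the 2-leaf stage; upland plantings received compound either on sown seed or on 1- to 4-leaf seedlings. All were kept 13–15 days in a greenhouse and scored visually, 0–100, relative to untreated plants.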

[2] = test system: ducksalad; test: Test B flooded paddy test; assay type: in vivo, Heteranthera limosa; details: 1000 g ai/ha, visual rating, scale 0 to 100 (0 no effect, 100 complete control), 13 to 15 days
Procedure, shortened: (§2)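 Plants grow to 1- to 4-leaf stage (2–18 cm) for postemergence spraying, or to 2-leaf stage for the paddy test. Formulated compound is applied. Greenhouse holding lasts 13–15 days. Response is scored visually relative to controls, 0 no effect to 100 complete control; a dash means no result.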

[3] = test system: rice; test: Test C flooded paddy test; assay type: in vivo, Oryza sativa
Procedure, shortened: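 Plants were grown to the 1- to 4-leaf stage (2–18 cm) and then treated postemergence, or grown to the 2-leaf stage for the flooded paddy test. They were held in a greenhouse for 12 to 14 days and then scored by eye against controls, where 0 is no effect and 100 is complete control.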

[4] = test system: rice; test: Test B pre-/postemergence herbicide test; assay type: in vivo, Oryza sativa; details: 0 = no effect, 100 = complete control, preemergence
Procedure, shortened: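 Evaluation is visual, comparing treated with control plants on a scale where 0 means no effect and 100 means full control. Treatments were preemergence, or postemergence on seedlings 2–18 cm tall, and held 13–15 days in the greenhouse.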

[5] = test system: barnyardgrass; test: Test B pre-/postemergence herbicide test; assay type: in vivo, Echinochloa crus-galli; details: 0 = no effect, 100 = complete control, preemergence
Procedure, shortened: (§3)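 Species tested were Echinochloa crus-galli, Ipomoea coccinea, Xanthium strumarium and Oryza sativa, treated both before emergence and at the 1- to 4-leaf stage; rice and barnyardgrass were also tested under flooding at 2 leaves. Greenhouse incubation lasted 13–15 days before visual 0–100 scoring.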

[6] = test system: rice; test: Test B flooded paddy test; assay type: in vivo, Oryza sativa; details: 1000 g ai/ha, visual rating, scale 0 to 100 (0 no effect, 100 complete control), 13 to 15 days
Procedure, shortened: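 After treating 2-leaf paddy plants or 2–18 cm postemergence plants (1 to 4 leaves) with formulated chemical, researchers kept them in a greenhouse for 13–15 days. Effects were judged visually versus controls: 0 indicates none, 100 total control.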

[7] = test system: pigweed; test: Test B pre-/postemergence herbicide test; assay type: in vivo, Amaranthus retroflexus
Procedure, shortened: as §1

[8] = test system: wheat; test: Test B postemergence herbicide test; assay type: in vivo, Triticum aestivum; design: key to Wheat plant response rating: 0 = no effect, 100 = complete control; details: postemergence, visual rating, scale 0 (no effect) to 100 (complete control)
Procedure, shortened: (§4)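 Treated at 2-leaf (paddy) or 1–4-leaf, 2–18 cm (postemergence); greenhouse 13–15 d; visual score vs control, 0 none to 100 complete control; dash = not tested.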

[9] = test system: blackgrass; test: Test B postemergence herbicide test; assay type: in vivo, Alopecurus myosuroides; details: postemergence, visual rating, scale 0 (no effect) to 100 (complete control)
Procedure, shortened: as §2

[10] = test system: barnyardgrass; test: Test C flooded paddy test; assay type: in vivo, Echinochloa crus-galli
Procedure, shortened: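 After a postemergence application at 1 to 4 leaves (plants 2–18 cm high), or at 2 leaves for barnyardgrass in flooded paddy, plants stayed in the greenhouse for 12 to 14 days. Damage was then judged visually relative to control plants, with 100 indicating complete control.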

[11] = test system: giant foxtail; test: Test B pre-/postemergence herbicide test; assay type: in vivo, Setaria faberi; details: for Foxtail, Giant plant response rating: postemergence, scale 0 (no effect) to 100 (complete control)
Procedure, shortened: as §1

[12] = test system: lambsquarters; test: Test B pre-/postemergence herbicide test; assay type: in vivo, Chenopodium album; details: for Lambsquarters plant response rating: postemergence, scale 0 (no effect) to 100 (complete control)
Procedure, shortened: as §1

[13] = test system: wild oat; test: Test B postemergence herbicide test; assay type: in vivo, Avena fatua; details: postemergence, visual rating, scale 0 (no effect) to 100 (complete control)
Procedure, shortened: as §4

[14] = test system: corn; test: Test B pre-/postemergence herbicide test; assay type: in vivo, Zea mays; details: for Corn plant response rating: postemergence, scale 0 (no effect) to 100 (complete control)
Procedure, shortened: as §1

[15] = test system: large crabgrass; test: Test B pre-/postemergence herbicide test; assay type: in vivo, Digitaria sanguinalis; details: for Crabgrass, Large plant response rating: postemergence, scale 0 (no effect) to 100 (complete control)
Procedure, shortened: as §1

[16] = test system: morningglory; test: Test B pre-/postemergence herbicide test; assay type: in vivo, Ipomoea coccinea; details: for Morningglory plant response rating: postemergence, scale 0 (no effect) to 100 (complete control)
Procedure, shortened: as §3

[17] = test system: barnyardgrass; test: Test B flooded paddy test; assay type: in vivo, Echinochloa crus-galli; details: 1000 g ai/ha, visual rating, scale 0 to 100 (0 no effect, 100 complete control), 13 to 15 days
Procedure, shortened: as §2

[18] = test system: ducksalad; test: Test C flooded paddy test; assay type: in vivo, Heteranthera limosa
[19] = test system: Surinam grass; test: Test B pre-/postemergence herbicide test; assay type: in vivo, Urochloa decumbens; details: for Surinam Grass plant response rating: postemergence, scale 0 (no effect) to 100 (complete control)
Procedure, shortened: as §1

[20] = test system: small flower umbrella sedge; test: Test B flooded paddy test; assay type: in vivo, Cyperus difformis; details: 1000 g ai/ha, visual rating, scale 0 to 100 (0 no effect, 100 complete control), 13 to 15 days
Procedure, shortened: as §2

[21] = test system: cocklebur; test: Test B pre-/postemergence herbicide test; assay type: in vivo, Xanthium strumarium; details: for Cocklebur plant response rating: postemergence, scale 0 (no effect) to 100 (complete control)
Procedure, shortened: as §3

[22] = test system: smallflower umbrella sedge; test: Test C flooded paddy test; assay type: in vivo, Cyperus difformis
[23] = 125 g ai/ha, 0 = no effect, 100 = complete control, preemergence
[24] = 500 g ai/ha, visual rating, 0 = no effect, 100 = complete control, preemergence
[25] = 62 g ai/ha, scale 0 to 100 (0 no effect, 100 complete control)
[26] = 125 g ai/ha, scale 0 to 100 (0 no effect, 100 complete control)
[27] = 250 g ai/ha, scale of 0 to 100, 0 is no effect, 100 is complete control
[28] = 500 g ai/ha, visual rating after 12 to 14 days, scale 0 to 100 (0 no effect, 100 complete control)

CCN(C)C(=O)c1cccc(NC(=O)c2sc(C(C)(C)C)nc2C)c1 [Compound 227]
30: Velvetleaf plant response rating (0 to 100 scale) [1, 23] | Blackgrass plant response rating ([9]; 500 g ai/ha) | Corn plant response rating ([14]; 125 g ai/ha, visual rating) | Crabgrass, Large plant response rating ([15]; 125 g ai/ha, visual rating) | Crabgrass, Large plant response rating ([15]; 500 g ai/ha, visual rating) | Surinam Grass plant response rating (0 to 100 scale) [19, 23] | Surinam Grass plant response rating ([19]; 500 g ai/ha, visual rating) | Cocklebur plant response rating ([21]; 500 g ai/ha, visual rating)
0: Rice plant response rating [3, 25] | Rice plant response rating [3, 26] | Barnyardgrass plant response rating (0 to 100 scale) ([5]; 125 g ai/ha) | Pigweed plant response rating (0 to 100 scale) [7, 23] | Wheat plant response rating ([8]; 125 g ai/ha) | Barnyardgrass plant response rating [10, 25] | Barnyardgrass plant response rating [10, 26] | Barnyardgrass plant response rating [10, 27] | Plant response rating, Barnyardgrass [10, 28] | Lambsquarters plant response rating (0 to 100 scale) [12, 23] | Oat, Wild plant response rating ([13]; 125 g ai/ha) | Oat, Wild plant response rating ([13]; 500 g ai/ha) | Corn plant response rating (0 to 100 scale) [14, 23] | Morningglory plant response rating (0 to 100 scale) [16, 23] | Ducksalad plant response rating [18, 25] | Ducksalad plant response rating [18, 26] | Ducksalad plant response rating [18, 27] | Cocklebur plant response rating (0 to 100 scale) [21, 23] | Plant response rating, Cocklebur [21, 24] | Sedge, Umbrella plant response rating [22, 25] | Sedge, Umbrella plant response rating [22, 26] | Sedge, Umbrella plant response rating [22, 27]
10: Rice plant response rating (0 to 100 scale) ([4]; 125 g ai/ha) | Wheat plant response rating ([8]; 500 g ai/ha) | Foxtail, Giant plant response rating (0 to 100 scale) [11, 23] | Foxtail, Giant plant response rating ([11]; 125 g ai/ha, visual rating) | Surinam Grass plant response rating ([19]; 125 g ai/ha, visual rating)
60: Plant response rating, Barnyardgrass ([5]; 500 g ai/ha, visual rating) | Foxtail, Giant plant response rating ([11]; 500 g ai/ha, visual rating) | Morningglory plant response rating ([16]; 500 g ai/ha, visual rating)
40: Corn plant response rating ([14]; 500 g ai/ha, visual rating) | Crabgrass, Large plant response rating (0 to 100 scale) [15, 23]
20: Velvetleaf plant response rating ([1]; 125 g ai/ha, visual rating) | Pigweed plant response rating ([7]; postemergence, 125 g ai/ha, visual rating, scale 0 (no effect) to 100 (complete control)) | Blackgrass plant response rating ([9]; 125 g ai/ha) | Plant response rating, Morningglory [16, 24] | Cocklebur plant response rating ([21]; 125 g ai/ha, visual rating)
25: Rice plant response rating [3, 27]
70: Velvetleaf plant response rating ([1]; 500 g ai/ha, visual rating) | Plant response rating, Rice ([4]; 500 g ai/ha, visual rating) | Rice plant response rating [6] | Plant response rating, Foxtail, Giant [11, 24] | Lambsquarters plant response rating ([12]; 500 g ai/ha, visual rating) | Barnyardgrass plant response rating [17] | Plant response rating, Surinam Grass [19, 24]
90: Plant response rating, Lambsquarters [12, 24]
80: Ducksalad plant response rating [2]
100: Plant response rating, Velvetleaf [1, 24] | Plant response rating, Pigweed [7, 24] | Plant response rating, Crabgrass, Large [15, 24]
15: Plant response rating, Sedge, Umbrella [22, 28]
55: Plant response rating, Rice [3, 28] | Plant response rating, Ducksalad [18, 28]
50: Lambsquarters plant response rating ([12]; 125 g ai/ha, visual rating) | Plant response rating, Corn [14, 24] | Morningglory plant response rating ([16]; 125 g ai/ha, visual rating) | Sedge, Umbrella plant response rating [20]
